Results as given in patent publication US9079901B2, “Fused heterocyclic compounds as ion channel modulators” (Gilead Sciences, Inc., priority 2010, dated 2015).

Target: wild-type human cardiac sodium channel, hNav1.5 (late sodium current) in HEK293 cells (Homo sapiens, UniProt Q14524)
Assay: Late INa screening assay (automated whole-cell patch clamp, PatchXpress)
Type: cell-based
Conditions: HEK293, compound at 1 μM; late INa generated with 10 μM Tefluthrin (or 50 nM ATX II); HEK293 hNav1.5; read-out: Late INa 1 μM (percent block of late INa)
Summary of the method: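 Percent block was derived from mean current 225–250 ms into a 250 ms depolarisation to −20 mV (holding −120 mV, every 10 s), normalised to the current left in Na-free solution. Whole-cell recordings came from HEK293 cells stably expressing α-subunit-only hNav1.5, at 24–27 °C. Late current was enhanced with 10 μM tefluthrin or 50 nM ATX II, then compound (typically 10 μM) was added three times over 7–8 min.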

Sequence of wild-type human cardiac sodium channel, hNav1.5 (late sodium current) in HEK293 cells (Q14524 whole entry): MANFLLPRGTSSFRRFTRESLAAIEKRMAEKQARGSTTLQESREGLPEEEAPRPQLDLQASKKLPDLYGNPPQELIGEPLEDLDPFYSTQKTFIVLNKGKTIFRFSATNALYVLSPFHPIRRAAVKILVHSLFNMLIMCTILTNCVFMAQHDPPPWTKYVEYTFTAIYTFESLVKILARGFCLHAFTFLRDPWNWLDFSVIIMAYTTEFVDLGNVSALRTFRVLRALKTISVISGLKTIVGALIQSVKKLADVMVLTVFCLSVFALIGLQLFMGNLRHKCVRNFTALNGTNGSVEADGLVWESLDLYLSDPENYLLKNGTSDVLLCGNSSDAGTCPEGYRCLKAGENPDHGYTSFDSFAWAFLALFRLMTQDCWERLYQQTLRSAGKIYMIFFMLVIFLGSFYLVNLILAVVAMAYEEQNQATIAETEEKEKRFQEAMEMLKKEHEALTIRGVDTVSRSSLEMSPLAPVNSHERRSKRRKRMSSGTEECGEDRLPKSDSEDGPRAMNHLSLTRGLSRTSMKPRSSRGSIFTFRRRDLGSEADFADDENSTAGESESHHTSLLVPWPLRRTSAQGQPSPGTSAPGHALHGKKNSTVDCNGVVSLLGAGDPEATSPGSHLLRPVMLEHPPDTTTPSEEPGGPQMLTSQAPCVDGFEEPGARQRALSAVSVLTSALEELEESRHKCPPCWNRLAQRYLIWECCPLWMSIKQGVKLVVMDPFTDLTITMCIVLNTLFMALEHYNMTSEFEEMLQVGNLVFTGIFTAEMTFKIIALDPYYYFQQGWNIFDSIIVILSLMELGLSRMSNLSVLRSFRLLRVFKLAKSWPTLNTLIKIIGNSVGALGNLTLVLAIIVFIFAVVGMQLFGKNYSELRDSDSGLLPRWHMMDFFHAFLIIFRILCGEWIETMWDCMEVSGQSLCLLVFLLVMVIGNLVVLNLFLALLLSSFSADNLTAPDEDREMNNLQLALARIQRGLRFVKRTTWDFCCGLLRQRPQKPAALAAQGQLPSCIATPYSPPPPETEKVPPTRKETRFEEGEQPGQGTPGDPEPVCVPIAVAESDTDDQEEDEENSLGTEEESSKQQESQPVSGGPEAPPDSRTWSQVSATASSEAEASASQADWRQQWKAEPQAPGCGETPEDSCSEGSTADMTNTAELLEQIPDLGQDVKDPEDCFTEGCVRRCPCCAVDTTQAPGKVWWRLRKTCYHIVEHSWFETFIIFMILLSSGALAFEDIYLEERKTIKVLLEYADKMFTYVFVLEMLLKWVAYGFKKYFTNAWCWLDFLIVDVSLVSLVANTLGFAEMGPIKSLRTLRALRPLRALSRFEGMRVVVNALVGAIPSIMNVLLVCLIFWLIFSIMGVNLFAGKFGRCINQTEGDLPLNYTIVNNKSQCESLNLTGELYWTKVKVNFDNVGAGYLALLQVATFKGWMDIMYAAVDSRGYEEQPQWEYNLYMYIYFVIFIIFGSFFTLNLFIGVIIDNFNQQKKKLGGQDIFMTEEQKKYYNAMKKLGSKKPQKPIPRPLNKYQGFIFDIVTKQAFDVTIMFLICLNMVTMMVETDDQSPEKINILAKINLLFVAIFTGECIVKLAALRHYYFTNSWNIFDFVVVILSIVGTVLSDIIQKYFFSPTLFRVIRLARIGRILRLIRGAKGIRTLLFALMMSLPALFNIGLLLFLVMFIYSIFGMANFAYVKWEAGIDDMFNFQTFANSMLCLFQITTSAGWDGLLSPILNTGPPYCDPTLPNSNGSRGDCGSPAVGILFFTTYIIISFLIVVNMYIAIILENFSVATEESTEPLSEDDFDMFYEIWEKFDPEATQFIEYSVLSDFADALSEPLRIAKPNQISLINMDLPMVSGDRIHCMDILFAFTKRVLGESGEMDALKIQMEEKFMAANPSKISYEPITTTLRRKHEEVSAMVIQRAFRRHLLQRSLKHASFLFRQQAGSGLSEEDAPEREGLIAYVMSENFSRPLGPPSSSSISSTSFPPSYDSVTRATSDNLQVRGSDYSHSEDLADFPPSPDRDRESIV

Compared with `O=c1n(CCc2ccc(-c3cccnc3)cn2)nc2ccc(-c3ccc(OC(F)(F)F)cc3)cn12` [compound 74, 2-(2-(3,3′-bipyridin-6-yl)ethyl)-6-(4-(trifluoromethoxy)phenyl)-[1,2,4]triazolo[4,3-a]pyridin-3(2H)-one], `O=c1n(CCOc2cccnn2)nc2ccc(-c3ccc(OC(F)(F)F)cc3)cn12` [compound 81, 2-(2-(pyridazin-3-yloxy)ethyl)-6-(4-(trifluoromethoxy)phenyl)-[1,2,4]triazolo[4,3-a]pyridin-3(2H)-one] is lower in inhibition at 1 µM: 11.1% for the first, 11% for the second.

First: Cc1ccc(OCCn2nc3ccc(-c4ccc(OC(F)(F)F)cc4)cn3c2=O)cc1 [compound 75, 2-(2-(p-tolyloxy)ethyl)-6-(4-(trifluoromethoxy)phenyl)-[1,2,4]triazolo[4,3-a]pyridin-3(2H)-one]
Second: Cc1cnc(OCCn2nc3ccc(-c4ccc(OC(F)(F)F)cc4)cn3c2=O)nc1 [compound 82, 2-(2-(5-methylpyrimidin-2-yloxy)ethyl)-6-(4-(trifluoromethoxy)phenyl)-[1,2,4]triazolo[4,3-a]pyridin-3(2H)-one]
The inhibition at 1 µM of the first is lower: 25.7% for the first, 32.5% for the second.

Compared with `O=c1n(CCCc2ccc(F)cc2)nc2ccc(-c3ccc(OC(F)(F)F)cc3)cn12` [compound 76, 2-(3-(4-fluorophenyl)propyl)-6-(4-(trifluoromethoxy)phenyl)-[1,2,4]triazolo[4,3-a]pyridin-3(2H)-one], `O=c1n(CCc2ccc(F)cc2F)nc2ccc(-c3ccc(OC(F)(F)F)cc3)cn12` [compound 78, 2-(2,4-difluorophenethyl)-6-(4-(trifluoromethoxy)phenyl)-[1,2,4]triazolo[4,3-a]pyridin-3(2H)-one] is higher in inhibition at 1 µM: 19% for the first, 36.7% for the second.

Compared with `O=c1n(CC2CCc3ccccc3O2)nc2ccc(-c3ccc(OC(F)(F)F)cc3)cn12` (stereo not drawn) [compound 77, 2-(chroman-2-ylmethyl)-6-(4-(trifluoromethoxy)phenyl)-[1,2,4]triazolo[4,3-a]pyridin-3(2H)-one], `COC(COc1ccccc1Cl)Cn1nc2ccc(-c3ccc(OC(F)(F)F)cc3)cn2c1=O` (stereo not drawn) [compound 80, 2-(3-(2-chlorophenoxy)-2-methoxypropyl)-6-(4-(trifluoromethoxy)phenyl)-[1,2,4]triazolo[4,3-a]pyridin-3(2H)-one] is higher in inhibition at 1 µM: 32.1% for the first, 33.4% for the second.

First: O=c1n(CCCOc2cccnn2)nc2ccc(-c3ccc(OC(F)(F)F)cc3)cn12 [compound 79, 2-(3-(pyridazin-3-yloxy)propyl)-6-(4-(trifluoromethoxy)phenyl)-[1,2,4]triazolo[4,3-a]pyridin-3(2H)-one]
Second: O=c1n(CCCOc2cnccn2)nc2ccc(-c3ccc(OC(F)(F)F)cc3)cn12 [compound 85, 2-(3-(pyrazin-2-yloxy)propyl)-6-(4-(trifluoromethoxy)phenyl)-[1,2,4]triazolo[4,3-a]pyridin-3(2H)-one]
The inhibition at 1 µM of the first is lower: 11.7% for the first, 12.2% for the second.

Going from `Cc1noc(Cn2nc3ccc(-c4ccc(OCC(F)(F)F)cc4)cn3c2=O)n1` [compound 83, 2-((3-methyl-1,2,4-oxadiazol-5-yl)methyl)-6-(4-(2,2,2-trifluoroethoxy)phenyl)-[1,2,4]triazolo[4,3-a]pyridin-3(2H)-one] to `CC(=O)OCc1nc(Cn2nc3ccc(-c4ccc(OC(F)(F)F)cc4)cn3c2=O)no1` [compound 94, (3-((3-oxo-6-(4-(trifluoromethoxy)phenyl)-[1,2,4]triazolo[4,3-a]pyridin-2(3H)-yl)methyl)-1,2,4-oxadiazol-5-yl)methyl acetate], the inhibition at 1 µM rises from 10.7% to 28.2%.

Compared with `Cc1noc(-c2ccccc2OCCn2nc3ccc(-c4ccc(OC(F)(F)F)cc4)cn3c2=O)n1` [compound 84, 2-(2-(2-(3-methyl-1,2,4-oxadiazol-5-yl)phenoxy)ethyl)-6-(4-(trifluoromethoxy)phenyl)-[1,2,4]triazolo[4,3-a]pyridin-3(2H)-one], `Cn1c(CCn2nc3ccc(-c4ccc(OC(F)(F)F)cc4)cn3c2=O)nc2ccccc21` [compound 97, 2-(2-(1-methyl-1H-benzo[d]imidazol-2-yl)ethyl)-6-(4-(trifluoromethoxy)phenyl)-[1,2,4]triazolo[4,3-a]pyridin-3(2H)-one] is lower in inhibition at 1 µM: 34.3% for the first, 16% for the second.

Going from `Cc1nc(COCCn2nc3ccc(-c4ccc(OC(F)(F)F)cc4)cn3c2=O)no1` [compound 86, 2-(2-((5-methyl-1,2,4-oxadiazol-3-yl)methoxy)ethyl)-6-(4-(trifluoromethoxy)phenyl)-[1,2,4]triazolo[4,3-a]pyridin-3(2H)-one] to `Cc1cc(C)nc(OCCn2nc3ccc(-c4ccc(OC(F)(F)F)cc4)cn3c2=O)n1` [compound 88, 2-(2-(4,6-dimethylpyrimidin-2-yloxy)ethyl)-6-(4-(trifluoromethoxy)phenyl)-[1,2,4]triazolo[4,3-a]pyridin-3(2H)-one], the inhibition at 1 µM rises from 17.5% to 20.8%.

Compared with `Cc1noc(Cn2nc3ccc(-c4ccc(OC(F)(F)F)cc4C)cn3c2=O)n1` [compound 87, 2-((3-methyl-1,2,4-oxadiazol-5-yl)methyl)-6-(2-methyl-4-(trifluoromethoxy)phenyl)-[1,2,4]triazolo[4,3-a]pyridin-3(2H)-one], `Cc1noc(Cn2nc3ccc(-c4ccc(Oc5ccc(F)cc5)cc4)cn3c2=O)n1` [compound 93, 6-(4-(4-fluorophenoxy)phenyl)-2-((3-methyl-1,2,4-oxadiazol-5-yl)methyl)-[1,2,4]triazolo[4,3-a]pyridin-3(2H)-one] is higher in inhibition at 1 µM: 21.3% for the first, 71.3% for the second.

First: O=c1n(CC(COc2ccccc2Cl)Oc2ncccn2)nc2ccc(-c3ccc(OC(F)(F)F)cc3)cn12 (stereo not drawn) [compound 89, 2-(3-(2-chlorophenoxy)-2-(pyrimidin-2-yloxy)propyl)-6-(4-(trifluoromethoxy)phenyl)-[1,2,4]triazolo[4,3-a]pyridin-3(2H)-one]
Second: CO[C@H](COc1ccccc1Cl)Cn1nc2ccc(-c3ccc(OC(F)(F)F)cc3)cn2c1=O [compound 95, (S)-2-(3-(2-chlorophenoxy)-2-methoxypropyl)-6-(4-(trifluoromethoxy)phenyl)-[1,2,4]triazolo[4,3-a]pyridin-3(2H)-one]
The inhibition at 1 µM of the first is lower: 16% for the first, 42.5% for the second.

Compared with `O=c1n(CCOc2nccc(C3CC3)n2)nc2ccc(-c3ccc(OC(F)(F)F)cc3)cn12` [compound 90, 2-(2-(4-cyclopropylpyrimidin-2-yloxy)ethyl)-6-(4-(trifluoromethoxy)phenyl)-[1,2,4]triazolo[4,3-a]pyridin-3(2H)-one], `O=c1n(CCOc2ncc(Cl)cn2)nc2ccc(-c3ccc(OC(F)(F)F)cc3)cn12` [compound 92, 2-(2-(5-chloropyrimidin-2-yloxy)ethyl)-6-(4-(trifluoromethoxy)phenyl)-[1,2,4]triazolo[4,3-a]pyridin-3(2H)-one] is lower in inhibition at 1 µM: 36.3% for the first, 35.3% for the second.

Going from `COC[C@H](Cn1nc2ccc(-c3ccc(OC(F)(F)F)cc3)cn2c1=O)Oc1ncccc1C(F)(F)F` [compound 91, (S)-2-(3-methoxy-2-(3-(trifluoromethyl)pyridin-2-yloxy)propyl)-6-(4-(trifluoromethoxy)phenyl)-[1,2,4]triazolo[4,3-a]pyridin-3(2H)-one] to `CO[C@@H](COc1ccccc1Cl)Cn1nc2ccc(-c3ccc(OC(F)(F)F)cc3)cn2c1=O` [compound 96, (R)-2-(3-(2-chlorophenoxy)-2-methoxypropyl)-6-(4-(trifluoromethoxy)phenyl)-[1,2,4]triazolo[4,3-a]pyridin-3(2H)-one], the inhibition at 1 µM falls from 58.3% to 46.1%.
